Measured values taken from PubChem BioAssay AID652241 (Broad Institute, 2013).
Inconclusive results are not listed. Activity calls are given as the source filed them.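 How the source made its calls: active means fitted curve reaches activity 50 in the expected rising direction at or below the top valid tested dose; inconclusive means no clear call, values can overlap the other calls; inactive means activity in the wrong direction, and the rest.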

Each molecule was assayed against Virion infectivity factor (Human immunodeficiency virus type 1 group M subtype B (isolate BH10)) + Virion infectivity factor (Human immunodeficiency virus type 1 group M subtype B (isolate BRU/LAI)) + Virion infectivity factor (Human immunodeficiency virus type 1 group M subtype B (isolate PCV12)) + Virion infectivity factor (Human immunodeficiency virus type 1 group M subtype B (isolate HXB2)) (UniProt P69720+P69721+P69722+P69723) (assay: Vif multimerization inhibitor potency, dose response, imaging, HEK293T, cherry-picks (AID 652241;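 further: imaged cell signal that rises when Vif self-association is disrupted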)). Settings: 24 h.

Row | SMILES | AC50
1 | CCc1ccc(N2C(=O)/C(=C/c3cccs3)N(CC(=O)OC)C2=S)cc1 | 18.8 µM
2 | Cc1ccc(CNC(=O)c2cccc3c2C(=O)c2ccc(N4CCC(C)CC4)cc2S3(=O)=O)cc1 | 14.4 µM
3 | Cc1cccc(Nc2nc(-c3ccc(O)c(O)c3)cs2)n1 | > 19.5 µM (inactive)
4 | CCN(CC)C1Oc2cc3c(cc2C(c2cc(OC)c(OC)c(OC)c2)C1C)OCO3 (centres undefined) | 6.24 µM
5 | CCOC(=O)N1CCN(c2c(NCc3ccc(Cl)cc3)c(=O)c2=O)CC1 | > 19.5 µM (inactive)
6 | C=CCNc1ncnc2c1ncn2C1OC(CO)C(O)C1O (centres undefined) | 5.47 µM
7 | COc1ccc(NC(=O)Cn2ncc(Cl)c(Cl)c2=O)cc1S(=O)(=O)N1CCOCC1 | > 19.5 µM (inactive)
8 | Cn1nnnc1Sc1ncnc2scc(-c3ccc(Cl)cc3)c12 | 3.75 µM
9 | COc1ccc(CCNc2nnc(Sc3nnnn3-c3ccccc3)s2)cc1OC | 5.92 µM
10 | COc1cc(-c2cnc3c(NC=O)cc(-c4ccccc4Cl)cn23)cc(OC)c1OC | 3.03 µM
11 | FC(F)(F)c1nnc2c3ccccc3c(Cl)nn12 | 12.5 µM
12 | O=C(COc1ccc(-n2cnnn2)cc1)Nc1cc(Cl)cc(Cl)c1 | 12.1 µM
13 | CCOc1ccc(Nc2nc3c(C)cccc3cc2C#N)cc1 | 11.9 µM
14 | COc1cccc(N2CCN(C(=O)c3ccc(CS(=O)c4ccc(C)cc4)o3)CC2)c1 (centres undefined) | 12.9 µM
15 | Cc1cc(NC(=O)NC2(C(F)(F)F)Oc3ccc(Cl)cc3O2)no1 (centres undefined) | 7.12 µM

Further lines, results first:

Row | AC50 | SMILES
16 | 10.2 µM | NC(CCc1ccccc1)c1csc(Nc2ccc(C(=O)c3ccccc3)cc2)n1 (centres undefined)
17 | 12 µM | Cc1ccc2c(COC(=O)c3ccccc3OC(F)F)cc(=O)oc2c1
18 | 14.1 µM | Cc1nnc2ccc(-c3cccc(NS(=O)(=O)c4ccccc4Cl)c3)nn12
19 | 16.5 µM | Cc1nn(Cc2c(Cl)cccc2Cl)c(C)c1NC(=O)c1cnn2c(C(F)F)cc(-c3ccccc3)nc12
20 | 3.66 µM | COc1ccc(-c2cc(-c3nc4ccccn4c3NCc3ccccc3)ccc2OC)cc1
21 | 13 µM | COc1cc2ccccc2cc1C(=O)Nc1ccc(Cl)cn1
22 | 3.89 µM | O=C(Nc1ccc(-c2nc3ccc(NC(=O)c4cccs4)cc3[nH]2)cc1)c1cccs1
23 | 5.28 µM | CCOc1ccccc1NC(=O)Cn1nnc(C(=O)NCc2cccs2)c1N
24 | > 19.5 µM (inactive) | COCCNC(=O)c1nn2c(C(F)(F)F)cc(-c3ccccc3)nc2c1Cl

Same assay, conditions: 24 h, at 0.75 µM (top of the series)

Row | activity, higher = inhibition | SMILES
25 | inactive | O=C1S/C(=C/c2ccc(N3CCOCC3)o2)C(=O)N1Cc1c(F)cccc1Cl

Same assay, conditions: 24 h, at 2.1 µM (top of the series)

Row | activity, higher = inhibition | SMILES
26 | inactive | Cc1ccc(/C=C2/CNC/C(=C/c3ccc(C)cc3)C2=O)cc1
27 | inactive | Cc1nc(NC(=O)C(C)Oc2cccc(Cl)c2)sc1C(=O)N(C)C (centres undefined)

Same assay, conditions: 24 h, at 6.8 µM (top of the series)

Row | SMILES | activity, higher = inhibition
28 | COc1cc2c3nnc(-c4ccc(F)cc4)c-3cn(Cc3ccc(F)cc3)c2cc1OC | inactive
29 | COc1cc(Nc2nc3ccccc3n3nnnc23)cc(OC)c1OC | inactive
30 | CCc1nnc(NC(=O)c2sc3nc4cc(C)ccc4cc3c2N)s1 | inactive

Other lines, results leading:

Row | activity, higher = inhibition | SMILES
31 | inactive | COc1ccc(OCCN2CCC(C(=O)NC(c3ccccn3)c3ccccc3OC)CC2)cc1 (centres undefined)
32 | inactive | Oc1[nH]c(=S)sc1/C=C1\C(c2ccccc2)=Nc2ccccc21
33 | inactive | COc1ccc(OC)c(/C=C/c2nc3ccccc3[nH]c2=O)c1
34 | inactive | N#Cc1cc2c(=O)n3ccccc3nc2n(-c2ccccc2Cl)c1=O

Same assay, conditions: 24 h, at 19.5 µM (top of the series)

Row | SMILES | activity, higher = inhibition
35 | Cc1cc(OCC(C)C)ccc1/C(O)=C1/C(=O)C(=O)N(Cc2cccnc2)C1c1ccncc1 (centres undefined) | inactive
36 | CC(C)C(NC(=O)c1ccccc1NC(=O)C(C)(C)C)C(=O)N1CCOCC1 (centres undefined) | inactive
37 | S=C(NC1CC1)N1CCc2ccccc2C1 | inactive
38 | Cc1cc(S(=O)(=O)N2CCOCC2)ccc1OCC(=O)NCCN1CCOCC1 | inactive
39 | Cc1ccc(N(C)S(=O)(=O)c2ccc(-c3ccc(=O)[nH]n3)s2)cc1C | inactive
40 | Cc1cc(C)c(S(=O)(=O)N2CCN(S(=O)(=O)N3CCOCC3)CC2)c(C)c1 | inactive
41 | Cc1ccc(Nc2cc(=O)[nH]c(=O)[nH]2)cc1C | inactive
42 | O=c1[nH]c(=O)n(Cc2ccco2)c2c1C(C(F)(F)F)(C(F)(F)F)N=C(c1ccco1)N2 | inactive
43 | COc1cccc(NC(=O)CSc2nnc(Cc3ccc(OC)c(OC)c3)o2)c1 | inactive
44 | COc1ccc(CC(NC(C)=O)C(=O)NC2CCN(C(=O)c3ccccc3F)CC2)cc1 (centres undefined) | inactive
45 | COC(CNC(=O)C1CCN(C(=O)c2cc3oc(C)cc3n2Cc2c(F)cccc2Cl)CC1)OC | inactive
46 | Cc1ccc(Nc2nc(N)nc(CSc3nnc(-c4ccncc4)o3)n2)cc1 | inactive
47 | COc1cc(NC(=O)c2ccc(C)cc2C)ccc1NC(=O)c1cccs1 | inactive
48 | O=C(O)c1ccc(S(=O)(=O)c2ccc3c(c2)C(=O)N(c2ccc(Br)cc2)C3=O)cc1 | inactive
49 | CCN1CCN(c2cc(=O)n(-c3cc(Cl)ccc3C)c(=O)[nH]2)CC1 | inactive
50 | CCOc1nc(N2CCCCC2)nc(-n2cc(-c3ccccc3)nn2)n1 | inactive
51 | CC1CN(S(=O)(=O)c2ccc(C(=O)NCCCn3ccnc3)cc2)CC(C)O1 (centres undefined) | inactive
52 | COc1c2occc2c(OC)c2c(=O)cc(C)oc12 | inactive
53 | O=C(NCC1CC1)NC(=O)c1c(F)cccc1Cl | inactive
54 | CCOC(=O)C[C@@H](C#N)NC(=O)[C@@H]1CCCN1C(=O)[C@@H](NC(=O)c1ccc(N)c(Cl)c1)C(C)(C)C | inactive
55 | CN1CCN(C(=S)c2ccc(OCC(=O)Nc3cccc(C(F)(F)F)c3)cc2)CC1 | inactive
56 | CC(C)CN1C(=O)C(=O)N(CC(=O)c2ccc3c(c2)OCO3)C1=O | inactive
57 | NS(=O)(=O)c1ccc(-c2ccc(/C=C3\SC(=O)NC3=O)o2)cc1 | inactive
58 | Cc1ccc2c(c1)N(CC(=O)N1CCCCCC1)C(=O)C(C)O2 (centres undefined) | inactive
59 | COc1c(Br)cc(Br)cc1/C=C1/C(=O)N=C(N)N1C | inactive
60 | CCOC(=O)C1CCCN(C(=O)c2cc(S(=O)(=O)N(C)C)ccc2N2CCCC2)C1 (centres undefined) | inactive
61 | CC(=O)Nc1cc(NC(=O)C2C3C=CC(C3)C2C(=O)O)ccc1Cl (centres undefined) | inactive

Other lines, results leading:

Row | activity, higher = inhibition | SMILES
62 | inactive | CC(C)n1nc(C(=O)Nc2ccc(-n3cnnn3)cc2)c2ccccc2c1=O
63 | inactive | S=C(Nc1ccccc1)N1CCn2c(nc3ccccc32)C1
64 | inactive | CC(NC(=O)CSc1nc2c(c(C(F)(F)F)n1)CCc1ccccc1-2)c1ccccc1 (centres undefined)
65 | inactive | COc1ccc(CC(=O)OCC(=O)Nc2cccc(Br)c2)cc1
66 | inactive | CCOC(=O)C1(Cc2ccccc2)CCN(Cc2csc(C(C)=O)c2)CC1
67 | inactive | CCN1C(=O)NC(c2ccccc2)C1=O (centres undefined)
68 | inactive | CCn1c(/C=C/c2ccc(F)cc2)nc2ccccc2c1=O
69 | inactive | COc1cc(/C=C/C(=O)O)ccc1S(=O)(=O)N1CCCc2ccccc21
70 | inactive | OC(CNCc1ccccc1Cl)COc1ccc(F)cc1 (centres undefined)
71 | inactive | COc1ccc(C(=O)NC2CC3CCCC(C2)N3Cc2ccccc2)cc1OC (centres undefined)
72 | inactive | Cc1nc(-c2ccccc2OC(F)(F)F)[nH]c(=O)c1Cl
73 | inactive | COc1ccc(C(=O)NCc2oc(-c3ccccc3)cc2C(=O)O)cc1
74 | inactive | CCCCOc1cccc2c(=O)n(CC(=O)Nc3ccc4c(c3)OCCO4)ccc12
75 | inactive | CCC(=O)Nc1ccc(-c2nnc(SCc3ccc(C(=O)Nc4nccs4)cc3)n2CC)cc1
76 | inactive | Cc1nnc(NC(=O)Cn2nc(C)c3ccccc3c2=O)s1
77 | inactive | COc1ccc(C(=O)Nc2cc(OC)c(NC(=O)Nc3ccccc3)cc2OC)cc1
78 | inactive | Cc1ccc(CNCCCSc2ncccn2)cc1

Row | activity, higher = inhibition | SMILES
79 | inactive | COc1ccc(-c2nnc(SCC(=O)N3CCCc4ccccc43)o2)cc1OC
80 | inactive | O=C(CCCOc1ccc(Br)cc1)NNC(=O)c1ccncc1
81 | inactive | Cc1cc(/C=C2\C(=N)N3C(SCc4ccccc4)=NSC3=NC2=O)c(C)n1Cc1ccccc1
82 | inactive | Cc1ccc(-c2cc(C(=O)NCc3ccccn3)c3ccccc3n2)cc1C
83 | inactive | Cc1ccc(-c2nn3c(C)nnc3c3ccccc23)cc1S(=O)(=O)NCc1ccccc1
84 | inactive | O=C(CCCSc1nc2ccccc2c(=O)[nH]1)c1ccccc1
85 | inactive | CCOc1ncccc1C(=O)OCc1ccccc1
86 | inactive | CCOc1ccc(CC(=O)Nc2sc(Cc3ccccc3)c(C)c2C(N)=O)cc1OCC
87 | inactive | COc1cccc(NC(=O)c2cc(C(=O)Nc3cccc(OC)c3)n(C)n2)c1
88 | inactive | Cc1ccc(C(=O)NC(CCc2ccccc2)C(=O)O)cc1 (centres undefined)
89 | inactive | O=C(CSc1nnc(CNc2ccc(F)cc2)o1)c1ccccc1
90 | inactive | CCCCCCOC(=O)C(C#N)c1nc2ccccc2nc1N1CCOCC1 (centres undefined)
91 | inactive | CC(C(=O)O)c1ccc(N2Cc3ccccc3C2=O)cc1 (centres undefined)
92 | inactive | CCCn1c(=O)c(C(=O)Nc2ncccc2O)c(O)c2ccccc21
93 | inactive | O=C(CCCCn1ccc(=O)[nH]c1=O)Nc1ccc(O)c(C(=O)O)c1
94 | inactive | CCC(=O)Nc1ccc(-c2cc3ccccc3oc2=O)cc1
